Assays:
tubulin [1] = biological target: T1, tubulin; test: quenching of intrinsic tryptophan fluorescence; type: binding, Capra hircus
T1 construct: tubulin purified from goat brain

tubulin [2] = biological target: T1, tubulin; test: quenching of intrinsic tryptophan fluorescence; gel filtration co-elution; curcumin displacement; polymerization inhibition; type: binding, Capra hircus

For COc1cc(/C=C/C(=O)CC(=O)/C=C/c2ccc(O)c(OC)c2)ccc1O [Curcumin], the Kd (tubulin [1]) was 5.2 ± 0.8 µM.
Work on COc1cc(/C=C/C(=O)C(=CC2CCN(C(=O)OC(C)(C)C)CC2)C(=O)/C=C/c2ccc(O)c(OC)c2)ccc1O [C1, 4-{5-(4-hydroxy-3-methoxy-phenyl)-2-[3-(4-hydroxy-3-methoxy-phenyl)-acryloyl]-3-oxo-penta-1,4-dienyl}-piperidine-1-carboxylic acid tert-butyl ester] yielded a Kd (tubulin [2]) of 2800 ± 1000 nM.
